US6177449A, “Sulfonamide-substituted chromans, processes for their preparation, their use as a medicament or diagnostic, and pharmaceutical preparations comprising them” (Aventis Pharma Deutschland GmbH, priority 1997, dated 2001)

Target: T1, human IsK protein (Homo sapiens, UniProt P15382)
T1 construct: only IsK injected, pore from oocyte's endogenous KCNQ1; two-microelectrode voltage clamp
Experiment: Inhibition of IsK current in Xenopus oocytes expressing human IsK protein (two-microelectrode voltage-clamp)
Assay type: cell-based
Settings: human IsK expressed in Xenopus oocytes; activated to -10 mV, 15 s voltage jumps, room temperature; Hill equation

T1 sequence (P70057 whole entry partner): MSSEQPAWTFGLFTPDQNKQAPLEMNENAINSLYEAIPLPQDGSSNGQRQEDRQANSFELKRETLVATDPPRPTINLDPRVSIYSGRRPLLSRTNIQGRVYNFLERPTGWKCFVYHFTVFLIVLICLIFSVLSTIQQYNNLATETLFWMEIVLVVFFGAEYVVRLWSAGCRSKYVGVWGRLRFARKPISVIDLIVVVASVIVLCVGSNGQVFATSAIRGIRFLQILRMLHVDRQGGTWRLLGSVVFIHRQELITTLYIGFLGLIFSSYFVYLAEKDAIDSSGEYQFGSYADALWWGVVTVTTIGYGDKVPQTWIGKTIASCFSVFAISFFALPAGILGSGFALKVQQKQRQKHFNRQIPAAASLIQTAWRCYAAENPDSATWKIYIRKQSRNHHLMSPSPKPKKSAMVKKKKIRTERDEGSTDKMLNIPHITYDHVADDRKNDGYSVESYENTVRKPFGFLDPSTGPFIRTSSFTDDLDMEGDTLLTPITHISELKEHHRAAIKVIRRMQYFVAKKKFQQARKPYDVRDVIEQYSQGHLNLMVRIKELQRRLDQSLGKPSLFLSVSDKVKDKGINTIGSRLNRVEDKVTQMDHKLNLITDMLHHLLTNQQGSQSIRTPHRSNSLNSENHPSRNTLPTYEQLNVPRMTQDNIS

In order of rising IC50:
1. CCOCCCOc1ccc2c(c1)C(N(C)S(C)(=O)=O)CC(C)(C)O2 (stereo not drawn) [Example 15, N-[6-(3-Ethoxypropoxy)-2,2-dimethylchroman-4-yl]-N-methylmethanesulfonamide]  320 nM
2. CCS(=O)(=O)N(C)C1CC(C)(C)Oc2ccc(-c3cccs3)cc21 (stereo not drawn) [Example 26, Ethanesulfonic acid (2,2-dimethyl-6-thiophen-2-yl-chroman-4-yl)methylamide]  380 nM
3. CCOCCCOc1ccc2c(c1)C(N(CC)S(C)(=O)=O)CC(C)(C)O2 (stereo not drawn) [Example 1, N-[6-(3-Ethoxypropoxy)-2,2-dimethylchroman-4-yl]-N-ethyl-methanesulfonamide]  430 nM
4. CCOCCOc1ccc2c(c1)C(N(CC)S(C)(=O)=O)CC(C)(C)O2 (stereo not drawn) [Example 9, N-[6-(2-Ethoxyethoxy)-2,2-dimethylchroman-4-yl]-N-ethylmethanesulfonamide]  690 nM
5. CCOCCOc1ccc2c(c1)C(N(CCOC)S(C)(=O)=O)CC(C)(C)O2 (stereo not drawn) [Example 17, N-[6-(2-Ethoxyethoxy)-2,2-dimethylchroman-4-yl]-N-(2-methoxyethyl)methanesulfonamide]  ~1000 nM
6. CCN(C1CC(C)(C)Oc2ccc(OCCCCCO)cc21)S(C)(=O)=O (stereo not drawn) [Example 2, N-Ethyl-N-[6-(5-hydroxypentyloxy)-2,2-dimethylchroman-4-yl]methanesulfonamide]  1710 nM
7. CCOCCCOc1ccc2c(c1)C(N(CCOC)S(C)(=O)=O)CC(C)(C)O2 (stereo not drawn) [Example 21, N-[6-(3-Ethoxypropoxy)-2,2-dimethylchroman-4-yl]-N-(2-methoxyethyl)methanesulfonamide]  1740 nM
8. CCCN(C1CC(C)(C)Oc2ccc(OCC(=O)NCCCOCC)cc21)S(=O)(=O)CC (stereo not drawn) [Example 23, 2-[4-(Ethanesulfonyl-(1-propyl)amino)-2,2-dimethylchroman-6-yloxy]-N-(3-ethoxypropyl)acetamide]  2490 nM
9. CCCN(C1CC(C)(C)Oc2ccc(OCC(=O)NCCOC)cc21)S(=O)(=O)CC (stereo not drawn) [Example 22, 2-[4-(Ethanesulfonyl-(1-propyl)amino)-2,2-dimethylchroman-6-yloxy]-N-(2-methoxyethyl)acetamide]  ~3000 nM
10. CCN(C1CC(C)(C)Oc2ccc(OCCCCC(=O)NCCOC)cc21)S(C)(=O)=O (stereo not drawn) [Example 3, 5-[4-(Ethylmethanesulfonylamino)-2,2-dimethylchroman-6-yloxy]pentanoic acid (2-methoxyethyl)amide]  6360 nM
11. CCN(C1CC(C)(C)Oc2ccc(OCCO)cc21)S(C)(=O)=O (stereo not drawn) [Example 8, N-Ethyl-N-[6-(2-hydroxyethoxy)-2,2-dimethylchroman-4-yi]-methanesulfonamide]  7430 nM
12. CCN(C1CC(C)(C)Oc2ccc(OCc3cc(OC)ccn3)cc21)S(C)(=O)=O (stereo not drawn) [Example 10, N-Ethyl--N-[6-(((4-methoxypyridin-2-yl)methyl)oxy)-2,2-dimethylchroman-4-yl]methanesulfonamide]  ~8000 nM
